# Reference: patent publication US20160158377A1, “BCL-XL Inhibitory Compounds and Antibody Drug Conjugates Including the Same” (AbbVie Inc., priority 2014, published 2016)
# Read-outs that look alike come from different tables or passages of the source.
# Experiments:
# Bcl-xL = Bcl-xL (Homo sapiens, UniProt Q07817); experiment: TR-FRET Bcl-xL binding assay (competition with probe F-Bak)
# Method: For the assay, test compounds were serially diluted in DMSO starting at 50 μM (2× starting concentration; 10% DMSO) and 10 μL transferred into a 384-well plate. 10 μL of a protein/probe/antibody mix was then added to each well at final concentrations listed below:
# The samples were then mixed on a shaker for 1 minute and incubated for an additional 2 hours at room temperature. For each assay plate, a probe/antibody and protein/antibody/probe mixture were included as a negative and a positive control, respectively. Fluorescence was measured on the Envision (Perkin Elmer) using a 340/35 nm excitation filter and 520/525 (F-Bak) and 495/510 nm (Tb-labeled anti-his antibody) emission filters. Dissociation constants (Ki) were determined using Wang's equation (Wang, 1995, FEBS Lett. 360:111-114). The TR-FRET assay can be performed in the presence of varying concentrations of human serum (HS) or fetal bovine serum (FBS). Compounds were tested both without HS and in the presence of 1% HS.
# [1] = tested on: Molt-4 human acute lymphoblastic leukemia cells; experiment: Molt-4 cell viability assay; format: cell-based; conditions: 10% human serum, 48 hours, CellTiter-Glo, read-out: Molt-4 Viability EC50 (nM, 10% HS)
# Method: In one exemplary set of conditions, Molt-4 (ATCC, Manassas, Va.) human acute lymphoblastic leukemia cells were plated 12,500 cells per well in 384-well tissue culture plates (Corning, Corning, N.Y.) in a total volume of 25 μL tissue culture medium supplemented with 10% human serum (Sigma-Aldrich, St. Louis, Mo.) and treated with a 3-fold serial dilution of the compounds of interest from 10 μM to 0.0005 μM. Each concentration was tested in duplicate at least 3 separate times. The number of viable cells following 48 hours of compound treatment was determined using the CellTiter-Glo® Luminescent Cell Viability Assay according to the manufacturer's recommendations (Promega Corp., Madison, Wis.). Compounds were tested in the presence of 10% HS.
# [2] = in the presence of 1% human serum (HS), read-out: Bcl-xL Binding Ki (nM, 1% HS)
# [3] = without human serum, read-out: Bcl-xL Binding Ki
# Bcl-xL, sequence (Q07817 whole entry): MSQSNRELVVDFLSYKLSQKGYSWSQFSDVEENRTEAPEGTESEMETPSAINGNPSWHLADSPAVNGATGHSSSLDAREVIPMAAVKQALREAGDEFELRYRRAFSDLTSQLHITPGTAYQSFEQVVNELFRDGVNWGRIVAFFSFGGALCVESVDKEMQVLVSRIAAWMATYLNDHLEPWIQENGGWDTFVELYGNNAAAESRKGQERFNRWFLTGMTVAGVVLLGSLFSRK
Ki (Bcl-xL; [2]) [nM],Ki (Bcl-xL; [3]) [nM],EC50 [1] [nM],Compound
0.29,< 0.001,432,"CNCCOC12CC3(C)CC(C)(CC(Cn4ncc(-c5ccc(-c6ccc7cccc(C(=O)Nc8nc9cccnc9s8)c7c6)nc5C(=O)O)c4C)(C3)C1)C2 [Compound W3.07, 3-[1-({3,5-dimethyl-7-[2-(methylamino)ethoxy]tricyclo[3.3.1.1^3,7]dec-1-yl}methyl)-5-methyl-1H-pyrazol-4-yl]-6-[8-([1,3]thiazolo[5,4-b]pyridin-2-ylcarbamoyl)naphthalen-2-yl]pyridine-2-carboxylic acid]"
1.1,0.024,,"Cc1c(-c2ccc(N3CCc4cccc(C(=O)Nc5nc6ccccc6s5)c4C3)nc2C(=O)O)cnn1CC12CC3(C)CC(C)(C1)CC(NC(=O)CN)(C3)C2 [Compound W3.40, 3-(1-{[3-(2-aminoacetamido)-5,7-dimethyltricyclo[3.3.1.1^3,7]decan-1-yl]methyl}-5-methyl-1H-pyrazol-4-yl)-6-{8-[(1,3-benzothiazol-2-yl)carbamoyl]-3,4-dihydroisoquinolin-2(1H)-yl}pyridine-2-carboxylic acid]"
0.891,0.011,16.3,"Cc1c(-c2ccc(N3CCc4cccc(C(=O)Nc5nc6ccccc6s5)c4C3)nc2C(=O)O)cnn1CC12CC3(C)CC(C)(C1)CC(OCCNC1CCN(S(C)(=O)=O)CC1)(C3)C2 [Compound W3.30, 6-[8-(1,3-benzothiazol-2-ylcarbamoyl)-3,4-dihydroisoquinolin-2(1H)-yl]-3-(1-{[3,5-dimethyl-7-(2-{[1-(methylsulfonyl)piperidin-4-yl]amino}ethoxy)tricyclo[3.3.1.1^3,7]dec-1-yl]methyl}-5-methyl-1H-pyrazol-4-yl)pyridine-2-carboxylic acid]"
0.12,,3.95,"CNCCOC12CC3(C)CC(C)(CC(Cn4ncc(-c5ccc(-c6cc7cccc(C(=O)Nc8nc9ccccc9s8)c7[nH]6)nc5C(=O)O)c4C)(C3)C1)C2 [Compound W3.27, 6-[7-(1,3-benzothiazol-2-ylcarbamoyl)-1H-indol-2-yl]-3-[1-({3,5-dimethyl-7-[2-(methylamino)ethoxy]tricyclo[3.3.1.1^3,7]dec-1-yl}methyl)-5-methyl-1H-pyrazol-4-yl]pyridine-2-carboxylic acid]"
0.108,< 0.01,,"CNCCOC12CC3(C)CC(C)(CC(Cn4ncc(-c5ccc(N6CCc7cc(OC)cc(C(=O)Nc8nc9ccccc9s8)c7C6)nc5C(=O)O)c4C)(C3)C1)C2 [Compound W3.22, 6-[8-(1,3-benzothiazol-2-ylcarbamoyl)-6-methoxy-3,4-dihydroisoquinolin-2(1H)-yl]-3-[1-({3,5-dimethyl-7-[2-(methylamino)ethoxy]tricyclo[3.3.1.1^3,7]dec-1-yl}methyl)-5-methyl-1H-pyrazol-4-yl]pyridine-2-carboxylic acid]"
0.0259,< 0.001,,"CNCCOC12CC3(C)CC(C)(CC(Cn4ncc(-c5ccc(-c6cnc7cccc(C(=O)Nc8nc9ccccc9s8)c7c6)nc5C(=O)O)c4C)(C3)C1)C2 [Compound W3.10, 6-[5-(1,3-benzothiazol-2-ylcarbamoyl)quinolin-3-yl]-3-[1-({3,5-dimethyl-7-[2-(methylamino)ethoxy]tricyclo[3.3.1.1^3,7]dec-1-yl}methyl)-5-methyl-1H-pyrazol-4-yl]pyridine-2-carboxylic acid]"
,,6.9,"Cc1c(-c2ccc(N3CCc4cccc(C(=O)Nc5nc6ccccc6s5)c4C3)nc2C(=O)O)cnn1CC12CC3(C)CC(C)(C1)CC(OCCNCCS(=O)(=O)N(C)C)(C3)C2 [Compound W3.36, 6-(8-(benzo[d]thiazol-2-ylcarbamoyl)-3,4-dihydroisoquinolin-2(1H)-yl)-3-(1-((3-(2-((2-(N,N-dimethylsulfamoyl)ethyl)amino)ethoxy)-5,7-dimethyladamantan-1-yl)methyl)-5-methyl-1H-pyrazol-4-yl)picolinic acid]"
2.3,0.49,,"COCCOC12CC3(C)CC(C)(CC(Cn4ncc(-c5ccc(N6CCc7cc(N8CCC(N)C8)cc(C(=O)Nc8nc9ccccc9s8)c7C6)nc5C(=O)O)c4C)(C3)C1)C2 (centres unmarked) [Compound W3.17, 6-[6-(3-aminopyrrolidin-1-yl)-8-(1,3-benzothiazol-2-ylcarbamoyl)-3,4-dihydroisoquinolin-2(1H)-yl]-3-(1-{[3-(2-methoxyethoxy)-5,7-dimethyltricyclo[3.3.1.1^3,7]dec-1-yl]methyl}-5-methyl-1H-pyrazol-4-yl)pyridine-2-carboxylic acid]"
0.07,< 0.01,,"Cc1c(-c2ccc(-c3cnc4cccc(C(=O)Nc5nc6ccccc6s5)c4c3)nc2C(=O)O)cnn1CC12CC3(C)CC(C)(C1)CC(OCCN)(C3)C2 [Compound W3.43, 3-(1-{[3-(2-aminoethoxy)-5,7-dimethyltricyclo[3.3.1.1^3,7]decan-1-yl]methyl}-5-methyl-1H-pyrazol-4-yl)-6-{5-[(1,3-benzothiazol-2-yl)carbamoyl]quinolin-3-yl}pyridine-2-carboxylic acid]"
,,10.7,"Cc1c(-c2ccc(N3CCc4cccc(C(=O)Nc5nc6ccccc6s5)c4C3)nc2C(=O)O)cnn1CC12CC3(C)CC(C)(C1)CC(OCCNCCC(=O)N(C)C)(C3)C2 [Compound W3.38, 6-[8-(1,3-benzothiazol-2-ylcarbamoyl)-3,4-dihydroisoquinolin-2(1H)-yl]-3-(1-{[3-(2-{[3-(dimethylamino)-3-oxopropyl]amino}ethoxy)-5,7-dimethyltricyclo[3.3.1.1^3,7]dec-1-yl]methyl}-5-methyl-1H-pyrazol-4-yl)pyridine-2-carboxylic acid]"
4.36,0.15,,"Cc1c(-c2ccc(N3CCc4cccc(C(=O)Nc5nc6ccccc6s5)c4C3)nc2C(=O)O)cnn1CC12CC3(C)CC(C)(CC(CCCN)(C3)C1)C2 [Compound W3.42, 3-(1-{[3-(3-aminopropyl)-5,7-dimethyltricyclo[3.3.1.1^3,7]dec-1-yl]methyl}-5-methyl-1H-pyrazol-4-yl)-6-[8-(1,3-benzothiazol-2-ylcarbamoyl)-3,4-dihydroisoquinolin-2(1H)-yl]pyridine-2-carboxylic acid]"
1.1,0.021,,"Cc1c(-c2ccc(-c3ccc4nccc(C(=O)Nc5nc6ccccc6s5)c4c3)nc2C(=O)O)cnn1CC12CC3(C)CC(C)(C1)CC(OCCN)(C3)C2 [Compound W3.23, 3-(1-{[3-(2-aminoethoxy)-5,7-dimethyltricyclo[3.3.1.1^3,7]dec-1-yl]methyl}-5-methyl-1H-pyrazol-4-yl)-6-[4-(1,3-benzothiazol-2-ylcarbamoyl)quinolin-6-yl]pyridine-2-carboxylic acid]"
0.14,0.014,,"CNCCN(C)c1cc2c(c(C(=O)Nc3nc4ccccc4s3)c1)CN(c1ccc(-c3cnn(CC45CC6(C)CC(C)(C4)CC(OCCOC)(C6)C5)c3C)c(C(=O)O)n1)CC2 [Compound W3.21, 6-[8-(1,3-benzothiazol-2-ylcarbamoyl)-6-{methyl[2-(methylamino)ethyl]amino}-3,4-dihydroisoquinolin-2(1H)-yl]-3-(1-{[3-(2-methoxyethoxy)-5,7-dimethyltricyclo[3.3.1.1^3,7]dec-1-yl]methyl}-5-methyl-1H-pyrazol-4-yl)pyridine-2-carboxylic acid]"
